Values after ≈ are worked out from the molar mass of the structure shown.
Columns and labels:
[1] = tested on: Trichophyton mentagrophytes; assay: Antimycotic activity in vitro (series dilution test), Trichophyton mentagrophytes; type: cell-based; conditions: growth no longer detectable, Sabourauds' milieu d'epreuve, 28° C, 24 to 96 hours, read-out: Minimum inhibitory concentration
[2] = tested on: Penicillium commune; assay: Antimycotic activity in vitro (series dilution test), Penicillium commune; type: cell-based; conditions: growth no longer detectable, Sabourauds' milieu d'epreuve, 28° C, 24 to 96 hours, read-out: Minimum inhibitory concentration
[3] = tested on: Candida albicans; assay: Antimycotic activity in vitro (series dilution test), Candida albicans; type: cell-based; conditions: growth no longer detectable, Sabourauds' milieu d'epreuve, 28° C, 24 to 96 hours, read-out: Minimum inhibitory concentration
[4] = tested on: Candida; assay: Action in candidosis of mice; type: in vivo; conditions: mice SPF-CF1; 100 mg/kg orally one hour before and seven hours after i.v. infection; survivors on 6th day
Experimental: b. Candidosis of mice Mice of type SPF-CF1 were infected intravenously with 1-2 × 10^6 of logarithmically growing Candida cells which were suspended in physiological sodium chloride solution. One hour before and seven hours after the infection, the animals were treated orally, in each case with 100 mg of the preparations/kg of body weight. Untreated animals died of the infection 3 to 6 days after the infection. The survival rate on the 6th day after infection was about 5% in the case of untreated control animals.

Structure (SMILES) | MIC [1] | MIC [2] | MIC [3] | Action in candidosis of mice [4]
CC(C)(C)C(O)C(Cn1cncn1)Oc1cccc(Cl)c1 (stereo not drawn) | > 64 µg/mL | > 64 µg/mL | > 64 µg/mL | 
CC(C)(C)C(O)C(Cn1cncn1)Oc1ccc(F)cc1 (stereo not drawn) | 64 µg/mL (≈ 218 µM) | 64 µg/mL (≈ 218 µM) |  | 
CC(C)(C)C(O)C(Cn1cncn1)Oc1ccccc1Cl (stereo not drawn) [Example 4] |  |  |  | ++++ (good action = 80% survivors on the 6th day after infection)
CC(C)(C)C(O)C(Cn1cncn1)Oc1cc(Cl)ccc1Cl (stereo not drawn) [Example 7] |  |  |  | ++++ (good action = 80% survivors on the 6th day after infection)
CC(C)(C)C(O)C(Cn1cncn1)Oc1cc(Cl)ccc1Cl (stereo not drawn) [drawing 6] | 32 µg/mL (≈ 93 µM) | > 64 µg/mL |  | 

Now from value to molecule, other results behind:

MIC [1] | MIC [2] | MIC [3] | Structure (SMILES) | Action in candidosis of mice [4]
4 µg/mL (≈ 11.6 µM) | > 64 µg/mL |  | CC(C)(C)C(O)C(Cn1cncn1)Oc1ccc(Cl)cc1Cl (stereo not drawn) | 
 | 64 µg/mL (≈ 211 µM) | 64 µg/mL (≈ 211 µM) | Cc1cccc(OC(Cn2cncn2)C(O)C(C)(C)C)c1C (stereo not drawn) | 
32 µg/mL (≈ 103 µM) | > 64 µg/mL |  | CC(C)(C)C(O)C(Cn1cncn1)Oc1ccccc1Cl (stereo not drawn) [drawing 4] | 

— patent publication US3993765A, “1-Propyl-triazolyl antimycotic compositions and methods of treating mycoses” (Bayer Aktiengesellschaft, priority 1973, dated 1976)
